The AUC(0-t) is the area under the concentration-time curve up to a stated or last time point. Read a high AUC(0-t) as more exposure. The term Tmax denotes the time from dosing to the highest level.

SMILES strings stand for the structures.

Consider 1 molecule from patent publication US12162850B2, “Formulations” (Betagenon AB, priority 2019, dated 2024).

A short description of this data set: Single dose oral pharmacokinetic studies in rabbits. Conditions: male, New Zealand White, rabbit, plasma; for AUC(0-t): 25 mg/kg, 25 mg/kg b.w. oral single dose. Type of data set: in vivo.

On to `O=C(Nc1nc(=O)n(Cc2ccc(Cl)cc2)s1)c1ccc(Cl)cc1.[Na]` [Compound 2, 4-chloro-N-[2-[(4-chlorophenyl)methyl]-3-oxo-1,2,4-thiadiazol-5-yl]benzamide sodium salt], for which the AUC(0-t) was 1700 ± 248 µg·h/mL (enteric coated capsule with MgO, rabbit plasma (Example 9)) and 1470 ± 78.7 µg·h/mL (enteric coated capsule with mannitol, rabbit plasma (Example 10)). In addition, the Tmax (53 mg/kg, enteric coated capsule with MgO, 53 mg/kg b.w. (equivalent to 50 mg/kg Compound 1) oral single dose, rabbit plasma (Example 11)) came to 48 ± 24 h.
